# Measurements as given in patent US20150320772A1, “USE OF ACETYLSALICYLIC ACID TO PREVENT AND/OR TREAT DIABETIC WOUNDS” (LABORATOIRES URGO, priority 2012, published 2015).
# Key:
# diabetic mice (db/db) = assay: Kinetics of wound closure in diabetic mice (db/db) treated topically with acetylsalicylic acid; type: in vivo; conditions: for wound closure (time to closure): from D3 post-lesion, NaCl control diabetic mice 26 days
# Source text: These animals are characterized by hyperglycemia, insulin resistance and hypertriglyceridemia, which makes these mice the first choice as models for diabetes of genetic origin. The mice of the “control” group for the db/db mice are heterozygous db/+mice.
# The mouse is anesthetized by means of isoflurane (halogenated anesthetic gas). The dorsal part and the flanks of the mouse are shaved and disinfected and a circular excision of close to 1 cm^2 is made. The connective tissue at the interface of the muscle tissue is removed without damaging the muscle fascia. The skin is totally excised as far as the panniculus carnosus.
# The wound thus created is protected by a device such as described in the patent applications filed by Laboratoires Urgo, FR 11 62295 and FR 11 62344, which enables both protection of the wound and observation and evaluation of the healing kinetics, and enables exudate to be collected.
# The wound healing process is observed from 0 to 30 days post-lesion. Between 3 and 5 very high resolution standardized digital photographs are taken for each animal. The percentage wound closure is based on changes in surface area calculated for the same injury on the same mouse and for the indicated time points. Thus, the mean calculated for wound healing (as a percentage) over the 3 mice in a group is obtained independently and the statistics are calculated from 3 groups of 3 independent experiments.
# As already described above, the mouse is anesthetized by means of isoflurane. The dorsal part and the flanks of the mouse are shaved and disinfected and a circular excision of close to 1 cm^2 is made. The connective tissue at the interface of the muscle tissue is removed without damaging the muscle fascia. The skin is totally excised as far as the panniculus carnosus.
# In the meantime, the reference solution of acetylsalicylic acid is prepared at 5 mM. This solution will be used to prepare the solutions with concentrations of 100 μM, 200 μM, 300 μM, 1 mM, 2 mM, 2.9 mM, 4.8 mM and 5 mM.
# Solutions with concentrations of 100 μM, 200 μM, 300 μM, 1 mM, 2 mM, 2.9 mM, 4.8 mM and 5 mM of acetylsalicylic acid are tested.
# A volume of between 50 and 500 μl is taken off from each solution and placed in contact with the wound via a device such as described through the patent applications filed by Laboratoires Urgo, FR 11 62295 and FR 11 62344.
# It is noteworthy that this placing of a predefined concentration of acetylsalicylic acid in contact with the site of healing is carried out starting from the third day post-lesion. Indeed, it is in this period that the delay in healing appears in the diabetic mice, compared to the “control” mice (FIGS. 1A and 1B). Moreover, in the context of treating diabetic patients, the treated wounds will already be formed and will be arrested in the inflammatory phase. No chronic wounds, and more particularly diabetic wounds, are treated as soon as they appear. Moreover, the inflammatory phase is an indispensable phase in healing, since it enables the damaged area to be cleaned and deterged by virtue of the infiltration of inflammatory cells such as polymorphonuclear neutrophils. It is therefore necessary to retain inflammation to initiate effective healing, and thus to not entirely block this phase. This is why treatment with acetylsalicylic acid is only proposed starting from D3 post-lesion.
# diabetic mice (HFD) = assay: Kinetics of cell infiltration into the wound (exudate) of diabetic mice (HFD) treated with acetylsalicylic acid; type: in vivo; conditions: 1000 μM solution, D7 post-lesion, versus control diabetic mice
# Source text: FIG. 7: Kinetics of cell infiltration into the wound of “control” mice and diabetic mice (HFD) treated with acetylsalicylic acid.
# HFD mice are murine models for induced diabetes, produced with C57BL/6 mice of 8 weeks of age. These mice follow a high calorie (high-fat) diet for 16 weeks. […] Unlike db/db mice, the diabetic state in these animals is not of genetic origin. The mice of the “control” group for the HFD mice are mice on a standard diet, also known by the abbreviation “NC”.
# The cells from the exudate are recovered from D1 post-lesion until no more exudate is secreted by the wound. In order to determine the kinetics of polymorphonuclear neutrophil infiltration, the cells from the exudate from the lesion are characterized by flow cytometry by immunolabeling relating to the membrane receptors Ly6G, 7/4 (for the polymorphonuclear cells) and F4/80 (for the macrophages). A total of 10 000 events is analyzed for each sample. All the results are given in the form of percentage expression.
# FIG. 7 describes the kinetics of cell infiltration carried out on “control” diabetic mice or on those to which has been applied a solution of 1000 μM of acetylsalicylic acid.
# [1] = system: human peripheral blood-derived monocytes differentiated into macrophages; assay: Viability of macrophages in vitro in the presence of acetylsalicylic acid (propidium iodide, flow cytometry); conditions: 72 h incubation
# Description: Moreover, cell viability tests are carried out on macrophages for various concentrations of acetylsalicylic acid (FIG. 6).
# This method of analysis comprises the use of human peripheral blood-derived monocytes placed in culture in RPMI medium, to which is added M-CSF at 10 ng/ml, for 24 hours in order to differentiate them into macrophages. Acetylsalicylic acid is added to the culture medium in a final concentration of 1000 μM or 5000 μM.
# Cell mortality is analyzed, after 72 hours of incubation, by flow cytometry by measuring the cytoplasmic incorporation of propidium iodide.
# The aim of such a cell viability test carried out in vitro is to verify the harmfulness of the dose administered to the cells found in the wound, and preferably in the present case to macrophages, which are considered to be a type of effector cell in the healing of the lesion being studied.
smiles,measurement,setting,value
CC(=O)Oc1ccccc1C(=O)O [acetylsalicylic acid],effect on the healing kinetics compared with control diabetic mice,"diabetic mice (db/db); 100 μM solution, topical",No effect whatsoever
same,wound closure (time to closure),"diabetic mice (db/db); 300 μM solution, topical",around twenty
same,resolution of inflammation compared to control diabetic mice,"diabetic mice (db/db); 300 μM, 1000 μM and 2000 μM solutions, topical, early phase D3 to D7 post-lesion",very clear acceleration of resolution of inflammation
same,wound closure (time to closure),"diabetic mice (db/db); 1000 μM solution, topical",around twenty
same,effect on the healing kinetics compared with control diabetic mice,"diabetic mice (db/db); 5000 μM solution, topical",No effect whatsoever
same,speed of wound closure (overall conclusion),"diabetic mice (db/db); concentration of between 100 μM and 4800 μM, administered from D3 post-lesion",increased speed of wound closure
same,number of cells infiltrating the site of the lesion,diabetic mice (HFD),significant reduction
same,cell toxicity,[1]; 1000 μM,no cell toxicity
same,reduction of cell viability,[1]; 5000 μM,20%
